Patent publication US20240108602A1, “TREATMENT OF MENTAL DISORDERS” (GH Research Ireland Limited, priority 2022, published 2024)
Where “and” joins values, the source holds several entries; their conditions need not be identical. Equal values may be shown once.

Tested on: patients with treatment-resistant major depressive disorder (TRD)
Experiment: Phase 1/2 clinical trial of inhaled 5-MeO-DMT in TRD patients (12 mg, 18 mg, individualized dosing regimen IDR 6/12/18 mg)
Procedure: Patients were assigned to different groups. In the context of the present invention, the group who received a single, 12 mg dose and the group who underwent an intra-day individualized dosing regimen (IDR) that allowed for multiple, escalating doses (6 mg, 12 mg and 18 mg) within a single day, driven by the intensity of the patient-reported psychedelic experience are of interest.
The data gathered include the assessment of the treated patients against several scales including the Montgomery-Åsberg Depression Rating Scale (MADRS) and the Brief Psychiatric Rating Scale (BPRS).
This trial was designed in two parts. Part A was an open-label, single-arm, single-dose Phase 1 trial with two dose levels (12 mg (n=4) and 18 mg (n=4)). […] The primary endpoint of Part B was to assess the effects on the severity of depression, as assessed by the proportion of patients in remission on day seven after dosing, defined as a MADRS total score of less than or equal to 10.

COc1ccc2[nH]cc(CCN(C)C)c2c1 [5-MeO-DMT]
MADRS Concentration Difficulties improvement (points) (IDR n=8, 2 h): 19 | MADRS Concentration Difficulties percentage improvement (IDR n=8, 2 h): 63% and 63.33% | MADRS Concentration Difficulties summed score (IDR n=8, 2 h): 11 | MADRS Inability to Feel improvement (points) (IDR n=8, 2 h): 24 | MADRS Inability to Feel percentage improvement (IDR n=8, 2 h): 67% and 66.67% | MADRS Inability to Feel summed score (IDR n=8, 2 h): 12 | MADRS Inner Tension improvement (points) (IDR n=8, 2 h): 15 | MADRS Inner Tension percentage improvement (IDR n=8, 2 h): 58% and 57.69% | MADRS Inner Tension summed score (IDR n=8, 2 h): 11 | MADRS Lassitude improvement (points) (IDR n=8, 2 h): 17 | MADRS Lassitude percentage improvement (IDR n=8, 2 h): 63% and 62.96% | MADRS Lassitude summed score (IDR n=8, 2 h): 10 | MADRS Pessimistic Thoughts improvement (points) (IDR n=8, 2 h): 21 | MADRS Pessimistic Thoughts percentage improvement (IDR n=8, 2 h): 75% | MADRS Pessimistic Thoughts summed score (IDR n=8, 2 h): 7 | MADRS Suicidal Thoughts improvement (points) (IDR n=8, 2 h): 8 | MADRS Suicidal Thoughts percentage improvement (IDR n=8, 2 h): 73% and 72.72% | MADRS Suicidal Thoughts summed score (IDR n=8, 2 h): 3 | BPRS Anxiety improvement (points) (IDR n=8, 3 h): 18 | BPRS Anxiety percentage improvement (IDR n=8, 3 h): 49% and 48.65% | BPRS Anxiety summed score (IDR n=8, 3 h): 19 | BPRS Blunted Affect improvement (points) (IDR n=8, 3 h): 4 | BPRS Blunted Affect percentage improvement (IDR n=8, 3 h): 27% and 26.67% | BPRS Blunted Affect summed score (IDR n=8, 3 h): 11 | BPRS Emotional Withdrawal improvement (points) (IDR n=8, 3 h): 5 | BPRS Emotional Withdrawal percentage improvement (IDR n=8, 3 h): 38% and 38.46% | BPRS Emotional Withdrawal summed score (IDR n=8, 3 h): 8 | BPRS Guilt Feelings improvement (points) (IDR n=8, 3 h): 20 | BPRS Guilt Feelings percentage improvement (IDR n=8, 3 h): 59% and 58.82% | BPRS Guilt Feelings summed score (IDR n=8, 3 h): 14 | BPRS Tension improvement (points) (IDR n=8, 3 h): 5 | BPRS Tension percentage improvement (IDR n=8, 3 h): 31% and 31.25% | BPRS Tension summed score (IDR n=8, 3 h): 11 | BPRS Anxiety improvement (points) (IDR n=8, Day 1): 21 | BPRS Anxiety percentage improvement (IDR n=8, Day 1): 57% and 56.76% | BPRS Anxiety summed score (IDR n=8, Day 1): 16 | BPRS Blunted Affect improvement (points) (IDR n=8, Day 1): 7 | BPRS Blunted Affect percentage improvement (IDR n=8, Day 1): 47% and 46.67% | BPRS Blunted Affect summed score (IDR n=8, Day 1): 8 | BPRS Emotional Withdrawal improvement (points) (IDR n=8, Day 1): 5 | BPRS Emotional Withdrawal percentage improvement (IDR n=8, Day 1): 38% and 38.46% | BPRS Emotional Withdrawal summed score (IDR n=8, Day 1): 8 | BPRS Guilt Feelings improvement (points) (IDR n=8, Day 1): 23 | BPRS Guilt Feelings percentage improvement (IDR n=8, Day 1): 68% and 67.65% | BPRS Guilt Feelings summed score (IDR n=8, Day 1): 11 | BPRS Tension improvement (points) (IDR n=8, Day 1): 5 | BPRS Tension percentage improvement (IDR n=8, Day 1): 31% and 31.25% | BPRS Tension summed score (IDR n=8, Day 1): 11 | MADRS Concentration Difficulties improvement (points) (IDR n=8, Day 1): 29 | MADRS Concentration Difficulties percentage improvement (IDR n=8, Day 1): 97% and 96.67% | MADRS Concentration Difficulties summed score (IDR n=8, Day 1): 1 | MADRS Inability to Feel improvement (points) (IDR n=8, Day 1): 34 | MADRS Inability to Feel percentage improvement (IDR n=8, Day 1): 94% and 94.44% | MADRS Inability to Feel summed score (IDR n=8, Day 1): 2 | MADRS Inner Tension improvement (points) (IDR n=8, Day 1): 20 | MADRS Inner Tension percentage improvement (IDR n=8, Day 1): 77% and 76.92% | MADRS Inner Tension summed score (IDR n=8, Day 1): 6 | MADRS Lassitude improvement (points) (IDR n=8, Day 1): 22 | MADRS Lassitude percentage improvement (IDR n=8, Day 1): 81% and 81.48% | MADRS Lassitude summed score (IDR n=8, Day 1): 5 | MADRS Pessimistic Thoughts improvement (points) (IDR n=8, Day 1): 24 | MADRS Pessimistic Thoughts percentage improvement (IDR n=8, Day 1): 86% and 85.71% | MADRS Pessimistic Thoughts summed score (IDR n=8, Day 1): 4 | MADRS Reduced Sleep improvement (points) (IDR n=8, Day 1): 13 | MADRS Reduced Sleep percentage improvement (IDR n=8, Day 1): 52% | MADRS Reduced Sleep summed score (IDR n=8, Day 1): 12 | MADRS Suicidal Thoughts improvement (points) (IDR n=8, Day 1): 10 | MADRS Suicidal Thoughts percentage improvement (IDR n=8, Day 1): 91% and 90.91% | MADRS Suicidal Thoughts summed score (IDR n=8, Day 1): 1 | BPRS Anxiety improvement (points) (IDR n=8, Day 7): 20 | BPRS Anxiety percentage improvement (IDR n=8, Day 7): 54% and 54.05% | BPRS Anxiety summed score (IDR n=8, Day 7): 17 | BPRS Blunted Affect improvement (points) (IDR n=8, Day 7): 7 | BPRS Blunted Affect percentage improvement (IDR n=8, Day 7): 47% and 46.67% | BPRS Blunted Affect summed score (IDR n=8, Day 7): 8 | BPRS Emotional Withdrawal improvement (points) (IDR n=8, Day 7): 5 | BPRS Emotional Withdrawal percentage improvement (IDR n=8, Day 7): 38% and 38.46% | BPRS Emotional Withdrawal summed score (IDR n=8, Day 7): 8 | BPRS Guilt Feelings improvement (points) (IDR n=8, Day 7): 24 | BPRS Guilt Feelings percentage improvement (IDR n=8, Day 7): 71% and 70.59% | BPRS Guilt Feelings summed score (IDR n=8, Day 7): 10 | BPRS Tension improvement (points) (IDR n=8, Day 7): 6 | BPRS Tension percentage improvement (IDR n=8, Day 7): 38% and 37.50% | BPRS Tension summed score (IDR n=8, Day 7): 10 | MADRS Concentration Difficulties improvement (points) (IDR n=8, Day 7): 21 | MADRS Concentration Difficulties percentage improvement (IDR n=8, Day 7): 70% | MADRS Concentration Difficulties summed score (IDR n=8, Day 7): 9 | MADRS Inability to Feel improvement (points) (IDR n=8, Day 7): 30 | MADRS Inability to Feel percentage improvement (IDR n=8, Day 7): 83% and 83.33% | MADRS Inability to Feel summed score (IDR n=8, Day 7): 6 | MADRS Inner Tension improvement (points) (IDR n=8, Day 7): 14 | MADRS Inner Tension percentage improvement (IDR n=8, Day 7): 54% and 53.85% | MADRS Inner Tension summed score (IDR n=8, Day 7): 12 | MADRS Lassitude improvement (points) (IDR n=8, Day 7): 24 | MADRS Lassitude percentage improvement (IDR n=8, Day 7): 89% and 88.89% | MADRS Lassitude summed score (IDR n=8, Day 7): 3 | MADRS Pessimistic Thoughts improvement (points) (IDR n=8, Day 7): 25 | MADRS Pessimistic Thoughts percentage improvement (IDR n=8, Day 7): 89% and 89.29% | MADRS Pessimistic Thoughts summed score (IDR n=8, Day 7): 3 | MADRS Reduced Sleep improvement (points) (IDR n=8, Day 7): 16 | MADRS Reduced Sleep percentage improvement (IDR n=8, Day 7): 64% | MADRS Reduced Sleep summed score (IDR n=8, Day 7): 9 | MADRS Suicidal Thoughts improvement (points) (IDR n=8, Day 7): 8 | MADRS Suicidal Thoughts percentage improvement (IDR n=8, Day 7): 73% and 72.73% | MADRS Suicidal Thoughts summed score (IDR n=8, Day 7): 3 | patients with MADRS remission (primary endpoint) (IDR n=8, day seven): 87.5% | SAEs reported (Part A): No SAEs | safety laboratory analyses, vital signs, psychiatric safety assessments, measures of cognitive function (Part A and Part B): No clinically significant changes | patients who experienced at least one ADR (Part A, in both groups (12 mg and 18 mg)): 3 of 4 | SAEs reported (Part B IDR): No SAEs | patients who experienced at least one ADR (Part B IDR n=8): 87.5% | patients achieving remission (fraction) (day 1): 8/8 | patients achieving remission (fraction) (within 2 h after dosing): ⅝
